How the values were obtained:
[1] = Sedative effect: Irwin test (passivity and ataxia); type: in vivo; conditions: rats, i.p., 1, 2 and 3 hours after treatment
Procedure: Pas.: Passivity, sedation, prostration. Quantitative evaluation between 0 and 3. They were performed 1, 2 and 3 hours after the treatment.
Atax.: Ataxia, the alterations in coordination in locomotion were evaluated. They were evaluated between 0 and 3. They were performed 1, 2 and 3 hours after the treatment.

[2] = system: death induced by compound 48/80; assay: "In vivo" antihistaminic activity: protection from death induced by 48/80 in the rat; conditions: ip, i.p. 60 min before 48/80 (0.5 mg/kg, i.v.), survival 4 h after, read-out: ED-50, protection from death induced by 48/80
Procedure: The antihistaminic activity was studied by determining the protection in the face of the mortality induced by the product 48/80 in the rat. This test was realized in accordance with the technique described by C. J. E. Niemegeers and cols. (Arch, int. Pharmacodyn. 234, 164-176 (1978).
The products according to the present invention are administered i.p. to rats. After 60 minutes the compound 48/80 is administered (0.5 mg/kg, i.v.). The protective activity is defined as the survival of the rats 4 hours after the i.v. injection of 48/80.
The activity of the products at several doses in order to determine the dose capable of protecting 50% of the animals (ED-50) was studied.

[3] = system: sleep time induced by pentobarbital; assay: Sedative effect: potentiation of the sleep time induced by pentobarbital; conditions: for Potentiation of sleep time (in words): orally; for Potentiation of sleep time: 1 h before sodium pentobarbital (35 mg/kg, s.c.)
Procedure: Study of the potentiation of the sleep time due to pentobarbital was carried out by following the method described by L. E. Allen and cols. […] The products studied were administered orally. […] The sleep time was compared with a group of control animals, treated only with sodium pentobarbital.

| Structure (SMILES) | ED50 [2] | Atax. (ataxia; score 0 to 3) ([1]; 80 mg/kg) | Pas. (passivity, sedation, prostration; score 0 to 3) ([1]; 80 mg/kg) | other results |
| --- | --- | --- | --- | --- |
| CN(C)CCOC(c1ccccc1)c1ccccc1 [Difenhidramine, reference compound] | 0.84 mg/kg |  |  | Atax. (ataxia; score 0 to 3) ([1]; 40 mg/kg): 0.9; Pas. (passivity, sedation, prostration; score 0 to 3) ([1]; 40 mg/kg): 0; Potentiation of sleep time (in words) ([3]; 20 mg/kg): potentiates significantly the sleep time |
| CCOCCn1c(CN2CCN(CCCCn3cc(Br)cn3)CC2)nc2ccccc21 [Example 1, 1-(2-Ethoxyethyl)-2-4-[4--(4-bromopyrazol-1-yl)butyl]piperazin-1-ylmethyl benzimidazole] | 0.09 mg/kg | 1.3 | 1.4 |  |
| CCOCCn1c(N2CCN(CCCCn3cc(Br)cn3)CC2)nc2ccccc21 [Example 2, 1-(2-Ethoxyethyl)-2-4-[4-(4-bromopyrazol1yl)butyl]piperazinyl benzimidazole] | 2.7 mg/kg | 1.3 | 0.7 | Atax. (ataxia; score 0 to 3) ([1]; 40 mg/kg): 0.4; Pas. (passivity, sedation, prostration; score 0 to 3) ([1]; 40 mg/kg): 0 |
| CCOCCn1c(CN2CCN(CCCCn3ccnc3)CC2)nc2ccccc21 [Example 3, 1-(2-Ethoxyethyl)-2-4-[4-(imidazol-1-yl)butyl]piperazin-1-ylmethyl benzimidazole] | 0.13 mg/kg | 0 | 0 |  |
| CCOCCn1c(CN2CCN(CCCCn3cncn3)CC2)nc2ccccc21 [Example 4, 1-(2-Ethoxyethyl)-2-4-[4-(1,2,4-triazol-1-yl)butyl]piperazin-1-ylmethyl benzimidazole] | 0.036 mg/kg | 0.5 | 0.4 |  |
| CCOCCn1c(CN2CCN(CCCCn3cc(S(=O)(=O)O)cn3)CC2)nc2ccccc21 [Example 5, 1-(2-Ethoxyethyl)-2-4-[4-(4-sulfopyrazol-1-yl)butyl]piperazin-1-ylmethyl benzimidazole] | 2.6 mg/kg | 0.4 | 0.4 |  |
| CCOCCn1c(CN2CCN(CCCCn3cc(C(=O)O)cn3)CC2)nc2ccccc21 [Example 6, 1-(2-Ethoxyethyl)-2-4-[4-(4-carboxypyrazol-1-yl)butyl]piperazin-1-ylmethylbenzimidazole] | 0.064 mg/kg | 0 | 0 |  |
| CCOCCn1c(CN2CCN(CCCCn3cccn3)CC2)nc2ccccc21 [Example 7, 1-(2-Ethoxyethyl)-2-4-[4-(pyrazol-1-yl)butyl]piperazin-1-ylmethyl benzimidazole] | 0.02 mg/kg | 0 | 0 | Atax. (ataxia; score 0 to 3) ([1]; 160 mg/kg): 0.3; Pas. (passivity, sedation, prostration; score 0 to 3) ([1]; 160 mg/kg): 0; Potentiation of sleep time ([3]; 80 mg/kg orally): 10%; Potentiation of sleep time ([3]; 160 mg/kg orally): 11%; Potentiation of sleep time ([3]; 320 mg/kg orally): 22%; Potentiation of sleep time (in words) ([3]; 320 mg/kg, maximum dose tested): does not potentiate the sleep time |
| CCOCCn1c(CN2CCN(CCCCn3cccc3)CC2)nc2ccccc21 [Example 8, 1-(2-Ethoxyethyl)-2-4-[4-(pyrrol-1-yl)butyl]piperazin-1-yl-methyl benzimidazole] | 0.02 mg/kg | 0 | 0 |  |
| CCOCCn1c(N2CCN(CCCCn3cc(C(=O)O)cn3)CC2)nc2ccccc21 [Example 9, 1-(2-Ethoxyethyl)-2-4-[4-(4-carboxypryazol-1-yl)butyl]piperazine-1-yl benzimidazole] | 0.84 mg/kg | 0 | 0 |  |
| CCOCCn1c(CN2CCN(CCCCn3cnc(Cl)c3Cl)CC2)nc2ccccc21 [Example 10] | 0.66 mg/kg |  |  |  |
